We go through 3 molecules from patent US20100029604A1, “ANTIBACTERIAL COMBINATION AND ITS USE” (priority 2007, published 2010).

In brackets after ≈: the same amount, converted by molar mass. Read-outs that look alike come from different tables or passages of the source.

Assay [1] relates to E. coli SHV-5. As to the kind of experiment: Synergy MIC, inhibitor at 4 μg/mL (Example 4). The format is cell-based. To be noted: SHV-5, class A, inhibitor constant 4 μg/mL.
Assay [2] deals with Aeromonas hydrophila AER-1. Put plainly: MIC, characterised β-lactamase producing strain (Example 5, Tables 5-7). The format is cell-based. An outline of the steps:
(§1)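 Twofold dilution series of each antibiotic were prepared in CAMHB, either alone or with inhibitor at a constant 2:1 concentration ratio, then inoculated to a final 10^5 CFU/mL. Plates were incubated for 24 h at 35° C, in duplicate.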

Assay [3] relates to Escherichia coli OXA-4. The assay is described as above. The format is cell-based. An outline of the steps:
as §1

In assay [4] the test system is Escherichia coli TEM-32. The assay is described as above. The format is cell-based. An outline of the steps:
as §1

For assay [5], the system named is Escherichia coli TEM-34. The assay is described as above. The format is cell-based.
Assay [6] has as its system Klebsiella pneumoniae TEM-30. Described as above. The format is cell-based.
For assay [7], the system named is Pseudomonas aeruginosa NPS-1. The description is as above. The format is cell-based.
Assay [8] deals with Salmonella spp. DHA-1. Described as above. The format is cell-based.
Assay [9] relates to M. catarrhalis BRO-1. Put plainly: Synergy MIC, inhibitor at 4 μg/mL (Example 3). The format is cell-based, Moraxella catarrhalis. The note with it: M. catarrhalis, β-lactamase BRO-1 (Table 3 r17); inhibitor constant 4 μg/mL. Here is the method:
(§2) Stock solutions of the test compounds and control antibiotics were prepared in distilled water according to the NCCLS guidelines [Methods for dilution antimicrobial tests for bacteria that grow aerobically. NCCLS document M7-A5; 2000; vol. 19. National Committee for Clinical Laboratory Standards, Villanova, Pa.]. All drug weights were corrected for salt forms and refer to the pure drug substance.
(§3) All tested strains and Clinical isolates were either purchased from the American Type Culture Collection (ATCC), or from the in-house company culture collection.
(§4) Stock cultures were prepared from broth cultures grown at 35° C. for 18-22 h without agitation and subsequent addition of 5% DMSO (v/v, final concentration) as cryoprotectant and stored frozen in liquid nitrogen. Mueller-Hinton II broth (MHBII) (BBL Cockeysville, Md.) was used for the testing procedure.
(§5) The in vitro activities of the antibiotics were determined by the broth microdilution method and agar dilution technique as recommended by CLSI guidelines. The MIC experiments were performed in duplicate in 96-well microtiter plates using MHB. Serial twofold dilutions of each antibiotic either alone or in combination with a constant amount (4 μg/mL) of a β-lactamase inhibitor were prepared in MHBII broth. A sterile pipette tip was used to mix the contents of each well (one tip was used going from the low to the high concentration in the same column). The bacterial suspension with final inoculum 10^5 CFU/mL was transferred to the test medium containing the antibacterial substances by a multipoint inoculator (Dynatech, Chantilly, Va., USA). The plates were then incubated at 35° C. for 24 h.
(§6) Representative compound of Formula (I) was evaluated against the serine-based Class A β-lactamases including TEM-type, SHV-type extended spectrum β-lactamases (ESBL) and various non-ESBL enzymes of enterobacteriaceae as well as BRO-type enzymes of Moraxella catarrhalis and penicillinases of Staphylococcus aureus.

Assay [10] deals with M. catarrhalis BRO-2. Put plainly: Synergy MIC, inhibitor at 4 μg/mL (Example 3). The format is cell-based, Moraxella catarrhalis. To be noted: β-lactamase BRO-2 (Table 3 r18), inhibitor constant 4 μg/mL. The procedure:
as §2, §3, §4, §5, §6

In assay [11] the test system is S. aureus PC. As to the kind of experiment: Synergy MIC, inhibitor at 4 μg/mL (Example 3). The format is cell-based, Staphylococcus aureus. The note with it: S. aureus, β-lactamase PC, inhibitor constant 4 μg/mL. The procedure:
as §2, §3, §4, §5, §6

Assay [12] has as its system Klebsiella pneumoniae TEM-1 hyperproduced. The format is cell-based. The procedure:
The MIC experiments were performed in duplicate in 96-well microtiter plates using CAMHB. […] The bacterial suspension with final inoculum 10^5 CFU/mL was transferred to the test medium containing the antibacterial substances. In each well of a 96-well microtiter plate was combined 50 μL of bacterial inoculum, 50 μL of antibiotic dilutions (or media for determination of the MIC of the antibiotic in the absence of test compound). Each plate included 4 wells with no bacterial inoculum (negative control) and 4 wells with no test compound and no antibiotic (positive control). The plates were incubated at 35° C. for 24 h. Purity check and colony counts on each inoculum suspension was performed to ensure that the final inoculum concentration routinely obtained closely approximates 5×10^5 CFU/mL. In addition the assay is routinely monitored by testing standard antibiotics and ensuring that MIC values are within the recommended ranges for the respective strains.
This test permits comparisons to be made between bacterial growth in the presence of antibiotic alone and bacterial growth in the presence of both an antibiotic and a novel (test) compound.

Assay [13] relates to Klebsiella oxytoca ATCC 51983. As to the kind of experiment: MIC broth microdilution (Example 2). The note with it: ATCC51983.
For assay [14], the system named is Klebsiella pneumoniae ATCC 700603. As to the kind of experiment: MIC broth microdilution (Example 2). To be noted: Klebsiella pneumoniae ATCC 700603 producing SHV-18.
Assay [15] deals with C. freundii SHV-5. As to the kind of experiment: Synergy MIC, inhibitor at 4 μg/mL (Example 4). To be noted: SHV-5, class A, inhibitor constant 4 μg/mL. The format is cell-based.
In assay [16] the test system is Escherichia coli TEM-30. As to the kind of experiment: MIC, characterised β-lactamase producing strain (Example 5, Tables 5-7). The format is cell-based. The note with it: Table 6, LK-157 at constant 4 μg/mL in combination.

Regarding `CO/N=C(\C(=O)N[C@@H]1C(=O)N2C(C(=O)[O-])=C(C[N+]3(C)CCCC3)CS[C@H]12)c1csc(N)n1` [cefepime], the MIC in [1] was 25.6 µg/mL; in assay [2] (Aeromonas hydrophila AER-1, functional group 2c, LK-157 in combination constant 4 μg/mL), 0.5 µg/mL; in assay [3] (Escherichia coli OXA-4, functional group 2d, LK-157 in combination constant 4 μg/mL), 0.5 µg/mL; in assay [4] (Escherichia coli TEM-32, functional group 2br, LK-157 in combination constant 4 μg/mL) it was 0.125 µg/mL; in assay [5] (Escherichia coli TEM-34, functional group 2br, LK-157 in combination constant 4 μg/mL) it was 0.063 µg/mL; in assay [6] (Klebsiella pneumoniae TEM-30, functional group 2br, LK-157 in combination constant 4 μg/mL), 0.125 µg/mL. For the same molecule, the MIC in assay [7] (Pseudomonas aeruginosa NPS-1, functional group 2a, LK-157 in combination constant 4 μg/mL) came to 8 µg/mL; in assay [8] (Salmonella spp. DHA-1, functional group 1, LK-157 in combination constant 4 μg/mL), 1 µg/mL.

Consider `CC(C)(O/N=C(\C(=O)N[C@@H]1C(=O)N2C(C(=O)[O-])=C(C[n+]3ccccc3)CS[C@H]12)c1csc(N)n1)C(=O)O` [ceftazidime], for which the MIC in [9] turned out to be 0.2 µg/mL; in [10], 0.05 µg/mL; in assay [11] (first listed (Table 3 r19)) it was 12.8 µg/mL; in assay [11] (second listed (Table 3 r20)), 25.6 µg/mL; in assay [2] (Table 7, Aeromonas hydrophila AER-1, combination at constant concentration ratio (2:1)) it was 0.25 µg/mL; in assay [3] (Table 7, Escherichia coli OXA-4, combination at constant concentration ratio (2:1)), 0.5 µg/mL. Besides, the MIC in assay [4] (Table 7, Escherichia coli TEM-32, combination at constant concentration ratio (2:1)) was 0.25 µg/mL; in [12] (Table 7, combination at constant concentration ratio (2:1)), 0.25 µg/mL; in [13], 32 to 64 µg/mL (≈ 58.5 to 117 µM). Further, the “susceptibility of the strain to the antibiotic” value in assay [14] is recorded as “resistant”.

As to `CO/N=C(\C(=O)N[C@@H]1C(=O)N2C(C(=O)O)=C(COC(C)=O)CS[C@H]12)c1csc(N)n1` [cefotaxime], the MIC in assay [15] was 25.6 µg/mL; in assay [1], more than 25.6 µg/mL; in [16], 0.031 µg/mL; in assay [5] (Table 6, Escherichia coli TEM-34, LK-157 at constant 4 μg/mL in combination) it was 0.031 µg/mL; in assay [6] (Table 6, Klebsiella pneumoniae TEM-30, LK-157 at constant 4 μg/mL in combination), 0.031 µg/mL; in assay [7] (Table 6, Pseudomonas aeruginosa NPS-1, LK-157 at constant 4 μg/mL in combination), 16 µg/mL. The MIC in [8] (Table 6, Salmonella spp. DHA-1, LK-157 at constant 4 μg/mL in combination) is 32 µg/mL; in assay [12] (Table 6, LK-157 at constant 4 μg/mL in combination), 0.063 µg/mL; in assay [13], 2 to 8 µg/mL (≈ 4.39 to 17.6 µM). The “susceptibility of the strain to the antibiotic” value in [14] is “susceptible”.

As usually defined, the MIC is the lowest concentration found to suppress growth.
